According to patent US7947854B2, “Bis-cationic compounds and use thereof” (The University of Sydney, priority 2003, dated 2011):
≈ marks a conversion by molar mass, not a printed value.

Assays:
Assay type in all cases: cell-based
[1] = test system: Candida albicans ATCC 10231; experiment: Antifungal susceptibility testing, microdilution MIC; conditions: Table 6; no visible growth after 48 h at 35° C.; read-out: MIC C. albicans ATCC 10231
In short: (§1)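 Standard microdilution method, run in duplicate, using serial dilutions of cationic compounds.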

[2] = test system: Cryptococcus neoformans ATCC 90112; experiment: as above; conditions: Table 6; no visible growth after 72 h at 35° C.; read-out: MIC C. neof. ATCC 90112
In short: as §1

[3] = test system: Aspergillus flavus ATCC 204 304; experiment: In vitro antifungal activity, filamentous fungi, NCCLS M38-A
Description: (§2) The assay used for filamentous fungi (Aspergillus; Scedosporium; Fusarium) was that published by the National Committee for Clinical Laboratory Standards. 2002. Reference Method for Broth Dilution Antifungal Susceptibility Testing of Filamentous Fungi: Approved Standard. NCCLS document M38-A.Villanova, Pa., USA.

[4] = test system: Aspergillus fumigatus ATCC 204 305; experiment: as above
Description: as §2

[5] = test system: Aspergillus terreus ATCC 03-232-378; experiment: as above
Description: as §2

[6] = test system: Fusarium solani 04-132-4207; experiment: as above
Description: as §2

[7] = test system: Scedosporium apiospermum 1-003-056; experiment: as above
Description: as §2

[8] = test system: Scedosporium prolificans 1-003-040; experiment: as above
Description: as §2

[9] = test system: Candida albicans ATCC 10231; experiment: In vitro antifungal activity, yeasts, NCCLS M27-A; conditions: Table 9
Description: (§3) The assay used for yeasts (Candida; Cryptococcus) is that of the National Committee for Clinical Laboratory Standards. 1997. Reference Method for Broth Dilution Antifungal Susceptibility Testing of Yeasts: Approved Standard. NCCLS document M27-A.Villanova, Pa., USA as published in Ghannoum, M. A., A. S. Ibrahim, Y. Fu, M. C. Shafiq, J. E Edwards, Jr. and R. S. Criddle. 1992. Susceptibility testing of Cryptococcus neoformans: A microdilution technique. J. Clin. Microbiol. 30:2881-2886.

[10] = test system: Cryptococcus neoformans ATCC 90112; experiment: In vitro antifungal activity, yeasts, NCCLS M27-A; conditions: Table 9
Description: as §3

- MIC [1]: 1.1 µM (≈ 1.02 µg/mL)
- MIC [2]: 0.55 µM (≈ 0.508 µg/mL)
- MIC [3]: 0.54 µM (≈ 0.499 µg/mL)
- MIC Aspergillus flavus ATCC 204 304 [3]: 0.50 µg/mL (≈ 0.541 µM)
- MIC [4]: 0.54 µM (≈ 0.499 µg/mL)
- MIC Aspergillus fumigatus ATCC 204 305 [4]: 0.50 µg/mL (≈ 0.541 µM)
- MIC [5]: 1.1 µM (≈ 1.02 µg/mL)
- MIC Aspergillus terreus ATCC 03-232-378 [5]: 1.0 µg/mL (≈ 1.08 µM)
- MIC [6]: 0.27 µM (≈ 0.25 µg/mL)
- MIC Fusarium solani 04-132-4207 [6]: 0.25 µg/mL (≈ 0.271 µM)
- MIC [7]: 0.54 µM (≈ 0.499 µg/mL)
- MIC Scedosporium apiospermum 1-003-056 [7]: 0.50 µg/mL (≈ 0.541 µM)
- MIC [8]: 4.3 µM (≈ 3.97 µg/mL)
- MIC Scedosporium prolificans 1-003-040 [8]: 4.0 µg/mL (≈ 4.33 µM)
- MIC [9]: 0.54 µM (≈ 0.499 µg/mL)
- MIC Candida albicans ATCC 10231 [9]: 0.50 µg/mL (≈ 0.541 µM)
- MIC [10]: 0.54 µM (≈ 0.499 µg/mL)
- MIC Cryptococcus neoformans ATCC 90112 [10]: 0.50 µg/mL (≈ 0.541 µM)
SMILES: C[C@@H]1[C@H](O)[C@@H](C)/C=C/C=C/C=C/C=C/C=C/C=C/C=C/[C@H](O[C@@H]2O[C@H](C)[C@@H](O)[C@H](N)[C@@H]2O)C[C@@H]2O[C@](O)(C[C@@H](O)C[C@@H](O)[C@H](O)CC[C@@H](O)C[C@@H](O)CC(=O)O[C@H]1C)C[C@H](O)[C@H]2C(=O)O [Amphotericin B, reference compound]
